Assay results taken from patent US20250171462A1 (NICO Therapeutics, Inc., priority 2022, published 2025).
pIC50: −log10 of the molar value. Where two headings read alike, the source gives them in different places.

Biological target: T1, full-length SARM1 (FL-SARM1) (Homo sapiens, UniProt Q6SZW1)
T1 sequence (Q6SZW1 28-724): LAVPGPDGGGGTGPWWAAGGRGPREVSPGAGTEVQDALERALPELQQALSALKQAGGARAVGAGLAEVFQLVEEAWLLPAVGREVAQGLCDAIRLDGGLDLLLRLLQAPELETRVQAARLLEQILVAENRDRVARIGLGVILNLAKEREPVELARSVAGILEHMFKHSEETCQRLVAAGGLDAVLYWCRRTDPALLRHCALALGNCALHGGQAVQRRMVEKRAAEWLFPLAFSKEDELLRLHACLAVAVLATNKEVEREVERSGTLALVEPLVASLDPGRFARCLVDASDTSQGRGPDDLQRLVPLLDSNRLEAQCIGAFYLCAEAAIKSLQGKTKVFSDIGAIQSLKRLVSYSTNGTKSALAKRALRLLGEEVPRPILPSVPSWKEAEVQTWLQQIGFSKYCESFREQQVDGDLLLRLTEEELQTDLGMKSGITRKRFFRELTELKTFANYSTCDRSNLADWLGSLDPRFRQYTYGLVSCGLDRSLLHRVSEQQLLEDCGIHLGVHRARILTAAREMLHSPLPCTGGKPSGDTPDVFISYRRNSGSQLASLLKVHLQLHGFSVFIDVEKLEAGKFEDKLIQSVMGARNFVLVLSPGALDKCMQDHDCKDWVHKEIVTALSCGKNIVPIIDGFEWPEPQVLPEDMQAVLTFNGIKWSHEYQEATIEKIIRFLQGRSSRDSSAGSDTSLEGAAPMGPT
Experiment: FL-SARM1 cellular lysate assay (NAD/NADH-Glo detection of remaining NAD+, NMN-activated)
Conditions: for IC50: Activity (μM) (IC50)

[1] = Activity (IC50 class), 11 point curve
[2] = read-out: Activity (IC50 class), 11 point curve

SMILES	pIC50 [1]	IC50 (11 point curve)	pIC50 [2]
Cc1ccc(NC(=O)N2C3C[C@H](O)C[C@H]2C3)cc1-c1ccccn1 [Example 39, trans-3-hydroxy-N-(4-methyl-3-(pyridin-2-yl)phenyl)-6-azabicyclo[3.1.1]heptane-6-carboxamide]	5.00 to 6.00	3.8 µM	–
Cc1cnc(-c2cc(NC(=O)N3C4CCCC3C4)ccc2C)nn1 [Example 180, N-(4-methyl-3-(6-methyl-1,2,4-triazin-3-yl)phenyl)-6-azabicyclo[3.1.1]heptane-6-carboxamide]	–	0.9 µM	6.00 to 10.00
Cc1ccc(NC(=O)C2COC(C)(C)CN2c2ncccn2)cc1-c1ncccn1 (single isomer, unassigned) [Example 208, 6,6-dimethyl-N-(4-methyl-3-(pyrimidin-2-yl)phenyl)-4-(pyrimidin-2-yl)morpholine-3-carboxamide]	5.00 to 6.00	3.3 µM	–
COCC12CC(C)CC(C1)N2C(=O)Nc1cc(-c2ncccn2)c(C)cc1F (single isomer, unassigned) [Example 199, trans-N-(2-fluoro-4-methyl-5-pyrimidin-2-ylphenyl)-1-(methoxymethyl)-3-methyl-6-azabicyclo[3.1.1]heptane-6-carboxamide]	5.00 to 6.00	4.3 µM	–
Cc1cc(F)c(NC(=O)N2[C@@H]3C[C@@H](C)C[C@H]2C3)cc1-c1cncnn1 [Example 221, cis-N-[2-fluoro-4-methyl-5-(1,2,4-triazin-6-yl)phenyl]-3-methyl-6-azabicyclo[3.1.1]heptane-6-carboxamide]	–	0.6 µM	6.00 to 10.00
Cc1ccc(NC(=O)[C@H]2C[C@@H]2C(F)(F)F)cc1-c1ccccn1 (racemic) [Example 128, trans-N-(4-methyl-3-pyridin-2-ylphenyl)-2-(trifluoromethyl)cyclopropane-1-carboxamide]	5.00 to 6.00	4.3 µM	–
Cc1ccc(NC(=O)[C@H]2C[C@@H](C3CC3)C2)cc1-c1ccccn1 (single isomer, unassigned) [Example 122, cis-3-cyclopropyl-N-(4-methyl-3-pyridin-2-ylphenyl)cyclobutane-1-carboxamide]	–	0.3 µM	6.00 to 10.00
Cc1cccc(-c2cc(NC(=O)[C@@H]3CC3(F)F)ccc2C)n1 [Example 163, (1S)-2,2-difluoro-N-[4-methyl-3-(6-methylpyridin-2-yl)phenyl]cyclopropane-1-carboxamide]	< 5.00	26 µM	–
Cc1ccc(NC(=O)N2CC[C@@H]3[C@@H](C)[C@@H]3C2)cc1-c1ccccn1 (racemic) [Example 37, trans-7-methyl-N-(4-methyl-3-(pyridin-2-yl)phenyl)-3-azabicyclo[4.1.0]heptane-3-carboxamide]	–	0.1 µM	6.00 to 10.00
CO[C@@H]1C[C@@H]2C[C@H](C1)N2C(=O)Nc1ccc(C)c(-c2ccccn2)c1 [Example 41, cis-3-methoxy-N-(4-methyl-3-(pyridin-2-yl)phenyl)-6-azabicyclo[3.1.1]heptane-6-carboxamide]	–	0.5 µM	6.00 to 10.00
Cc1ccc(NC(=O)[C@@H]2C[C@H]3CC[C@@H]2N3c2ccccn2)cc1-c1ncc(F)cn1 (racemic) [Example 275, cis-N-(3-(5-fluoropyrimidin-2-yl)-4-methylphenyl)-7-(pyridin-2-yl)-7-azabicyclo[2.2.1]heptane-2-carboxamide]	5.00 to 6.00	4.9 µM	–
Cc1ccc(NC(=O)N2C3CCC2[C@H](C)C3)cc1-c1ncc(F)cn1 (single isomer, unassigned) [Example 198, trans-N-[3-(5-fluoropyrimidin-2-yl)-4-methylphenyl]-2-methyl-7-azabicyclo[2.2.1]heptane-7-carboxamide]	–	0.3 µM	6.00 to 10.00
Cc1ccc(NC(=O)CC2CCC2)cc1-c1cnccn1 [Example 166, 2-cyclobutyl-N-(4-methyl-3-pyrazin-2-ylphenyl)acetamide]	< 5.00	19 µM	–
Cc1ccc(NC(=O)N2C3CCCC2C3)cc1-c1ccc(C(F)(F)F)nn1 [Example 61, N-(4-methyl-3-(6-(trifluoromethyl)pyridazine-3-yl)phenyl)-6-azabicyclo[3.1.1]heptane-6-carboxamide]	< 5.00	11 µM	–
Cc1ccc(NC(=O)N2C3CCCC2CC3)cc1-c1ccc(F)cn1 [Example 14, N-(3-(5-fluoropyridin-2-yl)-4-methylphenyl)-8-azabicyclo[3.2.1]octane-8-carboxamide]	–	0.1 µM	6.00 to 10.00
Cc1ccc(NC(=O)N2C3C[C@@H](C)C[C@H]2C3)cc1-c1nccnn1 [Example 215, cis-3-methyl-N-(4-methyl-3-(1,2,4-triazin-3-yl)phenyl)-6-azabicyclo[3.1.1]heptane-6-carboxamide]	–	0.03 µM	6.00 to 10.00

SMILES	pIC50 [1]	IC50 (11 point curve)	pIC50 [2]
Cc1ccc(NC(=O)[C@@H]2CC2(F)F)cc1-c1ncccc1C [Example 156, (1S)-2,2-difluoro-N-[4-methyl-3-(3-methylpyridin-2-yl)phenyl]cyclopropane-1-carboxamide]	5.00 to 6.00	2.5 µM	–
Cc1ccc(NC(=O)N2C3CCCC2C3)cc1-c1cc(C(F)(F)F)cnn1 [Example 66, N-(4-methyl-3-(5-(trifluoromethyl)pyridazine-3-yl)phenyl)-6-azabicyclo[3.1.1]heptane-6-carboxamide]	–	0.5 µM	6.00 to 10.00
Cc1ccc(NC(=O)CN2C(=O)CCOc3ccccc32)cc1-c1ccccn1 [Example 134, N-(4-methyl-3-pyridin-2-ylphenyl)-2-(4-oxo-2,3-dihydro-1,5-benzoxazepin-5-yl)acetamide]	5.00 to 6.00	1.9 µM	–
Cc1ccc(NC(=O)C2CC3CC[C@H]2C3)cc1-c1ccccn1 (single isomer, unassigned) [Example 139, cis-N-(4-methyl-3-pyridin-2-ylphenyl)bicyclo[2.2.1]heptane-2-carboxamide]	–	0.2 µM	6.00 to 10.00
COC(C)[C@@]12CC(C[C@@H](C)C1)N2C(=O)Nc1ccc(C(F)(F)F)c(-c2nccnn2)c1 (single isomer, unassigned) [Example 211, cis-N-(3-(1,2,4-triazin-3-yl)-4-(trifluoromethyl)phenyl)-1-(1-methoxyethyl)-3-methyl-6-azabicyclo[3.1.1]heptane-6-carboxamide]	–	0.004 µM	6.00 to 10.00
CO[C@@H]1CCCN(C(=O)Nc2ccc(C(F)(F)F)c(-c3ncc(F)cn3)c2)CC1 [Example 306, (R)-N-(3-(5-fluoropyrimidin-2-yl)-4-(trifluoromethyl)phenyl)-4-methoxyazepane-1-carboxamide]	5.00 to 6.00	9.6 µM	–
Cc1cc(F)c(NC(=O)N2C3C[C@@H](C4CC4)C[C@H]2C3)cc1-c1cccnn1 [Example 241, cis-3-cyclopropyl-N-(2-fluoro-4-methyl-5-pyridazin-3-ylphenyl)-6-azabicyclo[3.1.1]heptane-6-carboxamide]	–	0.09 µM	6.00 to 10.00
O=C(Nc1ccc(-c2ccccc2)c(-c2ccccn2)c1)[C@@H]1CC1(F)F [Example 148, (1S)-2,2-difluoro-N-(4-phenyl-3-pyridin-2-ylphenyl)cyclopropane-1-carboxamide]	< 5.00	38 µM	–
COc1ccnc(-c2cc(NC(=O)N3C4CCCC3C4)ccc2C)n1 [Example 65, N-(3-(4-methoxypyrmidin-2-yl)-4-methyl-phenyl)-6-azabicyclo[3.1.1]heptane-6-carboxamide]	5.00 to 6.00	2.3 µM	–
Cc1ccc(NC(=O)N2C[C@@H]3CCCC[C@@H]32)cc1-c1ncc(F)cn1 (racemic) [Example 226, N-[3-(5-fluoropyrimidin-2-yl)-4-methylphenyl]-7-azabicyclo[4.2.0]octane-7-carboxamide]	5.00 to 6.00	1.5 µM	–
Cc1ccc(NC(=O)[C@H]2C[C@H]2c2ccccc2)cc1-c1cccnn1 [Example 298, (1S,2R)-N-(4-methyl-3-pyridazin-3-ylphenyl)-2-phenylcyclopropane-1-carboxamide]	–	0.6 µM	6.00 to 10.00
Cc1ccc(NC(=O)C2C3CCC2(c2ccccn2)C3)cc1-c1ncc(F)cn1 (mixture of isomers) [Example 318]	5.00 to 6.00	1.5 µM	–
O=C(Nc1ccc(Cl)c(-c2ccccn2)c1)N1C2CCCC1C2 [Example 20, N-(4-chloro-3-(pyridin-2-yl)phenyl)-6-azabicyclo[3.1.1]heptane-6-carboxamide]	–	0.4 µM	6.00 to 10.00
C[C@H]1CC1c1ccc(NC(=O)[C@@H]2CC2(F)F)cc1-c1ccccn1 (stereo partly drawn) [Example 127, (1S)-2,2-difluoro-N-[4-[trans-2-methylcyclopropyl]-3-pyridin-2-ylphenyl]cyclopropane-1-carboxamide]	5.00 to 6.00	5.6 µM	–
Cc1c(C#N)cc(NC(=O)N2C3CCCC2C3)cc1-c1ccccn1 [Example 83, N-(3-cyano-4-methyl-5-pyridin-2-ylphenyl)-6-azabicyclo[3.1.1]heptane-6-carboxamide]	< 5.00	35 µM	–
